Tests used:
Test in all cases: cells
SBC-1 = type: functional, cell-based, Homo sapiens; conditions: Homo sapiens, SBC-1;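 also: cell viability assay measuring growth inhibition of the SBC-1 cell line, IC50 being the concentration that halves growth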
Description: SANGER: Inhibition of human SBC-1 cell growth in a cell viability assay.

GOTO = type: functional, cell-based, Homo sapiens; conditions: Homo sapiens, GOTO;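 also: growth inhibition of GOTO cells, read out by a cell viability assay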
Description: SANGER: Inhibition of human GOTO cell growth in a cell viability assay.

GR-ST = type: functional, cell-based, Homo sapiens; conditions: Homo sapiens, GR-ST
Description: SANGER: Inhibition of human GR-ST cell growth in a cell viability assay.

MOLT-16 = type: functional, cell-based, Homo sapiens; conditions: Homo sapiens, MOLT-16;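 also: growth inhibition of human MOLT-16 cells, read out with a cell viability assay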
Description: SANGER: Inhibition of human MOLT-16 cell growth in a cell viability assay.

IST-MES1 = type: functional, cell-based, Homo sapiens; conditions: Homo sapiens, IST-MES1;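 also: growth inhibition of IST-MES1 cells, measured with a cell viability assay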
Description: SANGER: Inhibition of human IST-MES1 cell growth in a cell viability assay.

NCI-H1155 = type: functional, cell-based, Homo sapiens; conditions: Homo sapiens, NCI-H1155;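 also: cell growth inhibition measured by a viability assay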
Description: SANGER: Inhibition of human NCI-H1155 cell growth in a cell viability assay.

MSTO-211H = type: functional, cell-based, Homo sapiens; conditions: Homo sapiens, MSTO-211H
Description: SANGER: Inhibition of human MSTO-211H cell growth in a cell viability assay.

ES7 = type: functional, cell-based, Homo sapiens; conditions: Homo sapiens, ES7;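 also: growth inhibition of cultured human ES7 cells, read out as cell viability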
Description: SANGER: Inhibition of human ES7 cell growth in a cell viability assay.

COLO-668 = type: functional, cell-based, Homo sapiens; conditions: Homo sapiens, COLO-668
Description: SANGER: Inhibition of human COLO-668 cell growth in a cell viability assay.

TGW = type: functional, cell-based, Homo sapiens; conditions: Homo sapiens, TGW;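 also: growth inhibition of human TGW cells, read out with a cell viability assay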
Description: SANGER: Inhibition of human TGW cell growth in a cell viability assay.

NB69 = type: functional, cell-based, Homo sapiens; conditions: Homo sapiens, NB69;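 also: growth inhibition of NB69 cells, determined by a cell viability assay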
Description: SANGER: Inhibition of human NB69 cell growth in a cell viability assay.

NH-12 = type: functional, cell-based, Homo sapiens; conditions: Homo sapiens, NH-12;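 also: growth inhibition of NH-12 cells, read out with a cell viability assay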
Description: SANGER: Inhibition of human NH-12 cell growth in a cell viability assay.

SK-NEP-1 = type: functional, cell-based, Homo sapiens; conditions: Homo sapiens, SK-NEP-1;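 also: growth inhibition of human SK-NEP-1 cells, read out by a cell viability assay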
Description: SANGER: Inhibition of human SK-NEP-1 cell growth in a cell viability assay.

DMS-114 = type: functional, cell-based, Homo sapiens; conditions: Homo sapiens, DMS-114
MZ2-MEL = type: functional, cell-based, Homo sapiens; conditions: Homo sapiens, MZ2-MEL;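 also: growth inhibition of MZ2-MEL cells read out with a cell viability assay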
Description: SANGER: Inhibition of human MZ2-MEL cell growth in a cell viability assay.

UACC-257 = type: functional, cell-based, Homo sapiens; conditions: Homo sapiens, UACC-257
Description: SANGER: Inhibition of human UACC-257 cell growth in a cell viability assay.

NTERA-2-cl-D1 = type: functional, cell-based, Homo sapiens; conditions: Homo sapiens, NTERA-2-cl-D1;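 also: inhibition of cell growth, measured with a cell viability assay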
Description: SANGER: Inhibition of human NTERA-S-cl-D1 cell growth in a cell viability assay.

Ramos-2G6-4C10 = type: functional, cell-based, Homo sapiens; conditions: Homo sapiens, Ramos-2G6-4C10;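 also: growth inhibition of the cell line, measured by a cell viability read-out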
Description: SANGER: Inhibition of human Ramos-2G6-4C10 cell growth in a cell viability assay.

A101D = type: functional, cell-based, Homo sapiens; conditions: Homo sapiens, A101D;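 also: growth inhibition of the cell line, measured with a viability assay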
Description: SANGER: Inhibition of human A101D cell growth in a cell viability assay.

SF-268 = type: functional, cell-based, Homo sapiens; conditions: Homo sapiens, SF-268;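 also: growth inhibition of SF-268 cells determined with a cell viability assay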
Description: SANGER: Inhibition of human SF268 cell growth in a cell viability assay.

TE-6 = type: functional, cell-based, Homo sapiens; conditions: Homo sapiens, TE-6;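 also: growth inhibition of TE-6 cells, read out with a cell viability assay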
Description: SANGER: Inhibition of human TE-6 cell growth in a cell viability assay.

COLO-824 = type: functional, cell-based, Homo sapiens; conditions: Homo sapiens, COLO-824
Description: SANGER: Inhibition of human COLO-824 cell growth in a cell viability assay.

no-11 = type: functional, cell-based, Homo sapiens; conditions: Homo sapiens;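 also: growth inhibition of human NO-11 cells, read out with a cell viability assay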
Description: SANGER: Inhibition of human no-11 cell growth in a cell viability assay.

COLO-800 = type: functional, cell-based, Homo sapiens; conditions: Homo sapiens, COLO-800;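 also: growth inhibition of COLO-800 cells, read out with a cell viability assay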
Description: SANGER: Inhibition of human COLO-800 cell growth in a cell viability assay.

BV-173 = type: functional, cell-based, Homo sapiens; conditions: Homo sapiens, BV-173
Description: SANGER: Inhibition of human BV-173 cell growth in a cell viability assay.

GI-1 = type: functional, cell-based, Homo sapiens; conditions: Homo sapiens, GI-1;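 also: growth inhibition of human GI-1 cells, measured with a cell viability readout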
MZ1-PC = type: functional, cell-based, Homo sapiens; conditions: Homo sapiens, MZ1-PC;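 also: cell viability assay measuring growth inhibition of human MZ1-PC cells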
OCI-AML2 = type: functional, cell-based, Homo sapiens; conditions: Homo sapiens, OCI-AML2;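 also: growth inhibition of OCI-AML2 cells, read out with a cell viability assay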
EW-1 = type: functional, cell-based, Homo sapiens; conditions: Homo sapiens, EW-1;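 also: growth inhibition of the human EW-1 cell line, read out by a cell viability assay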
Description: SANGER: Inhibition of human EW-1 cell growth in a cell viability assay.

CTB-1 = type: functional, cell-based, Homo sapiens; conditions: Homo sapiens, CTB-1
Description: SANGER: Inhibition of human CTB-1 cell growth in a cell viability assay.

LB2518-MEL = type: functional, cell-based; conditions: Homo sapiens;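 also: growth inhibition of human LB2518-MEL cells, measured with a cell viability assay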
NCI-H1299 = type: functional, cell-based; conditions: Homo sapiens;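 also: growth inhibition of human NCI-H1299 cells, read out by a cell viability assay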
KINGS-1 = type: functional, cell-based, Homo sapiens; conditions: Homo sapiens, KINGS-1;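 also: cell viability assay measuring suppression of KINGS-1 cell growth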
Description: SANGER: Inhibition of human KINGS-1 cell growth in a cell viability assay.

NMC-G1 = type: functional, cell-based, Homo sapiens; conditions: Homo sapiens, NMC-G1;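 also: growth inhibition of the NMC-G1 cell line, measured with a cell viability read-out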
Description: SANGER: Inhibition of human NMC-G1 cell growth in a cell viability assay.

NCI-H1838 = type: functional, cell-based, Homo sapiens; conditions: Homo sapiens, NCI-H1838;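 also: growth inhibition of NCI-H1838 cells, determined with a cell viability readout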
Description: SANGER: Inhibition of human NCI-H1838 cell growth in a cell viability assay.

KNS-81-FD = type: functional, cell-based, Homo sapiens; conditions: Homo sapiens, KNS-81-FD;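 also: growth inhibition of KNS-81-FD cells, read out with a cell viability assay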
Description: SANGER: Inhibition of human KNS-81-FD cell growth in a cell viability assay.

ONS-76 = type: functional, cell-based, Homo sapiens; conditions: Homo sapiens, ONS-76;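 also: growth inhibition of human ONS-76 cells, read out with a cell viability assay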
Description: SANGER: Inhibition of human ONS-76 cell growth in a cell viability assay.

NCI-H1581 = type: functional, cell-based, Homo sapiens; conditions: Homo sapiens, NCI-H1581;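 also: cell growth inhibition read out by a viability assay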
Description: SANGER: Inhibition of human NCI-H1581 cell growth in a cell viability assay.

NB6 = type: functional, cell-based, Homo sapiens; conditions: Homo sapiens, NB6
Description: SANGER: Inhibition of human NB6 cell growth in a cell viability assay.

NOS-1 = type: functional, cell-based, Homo sapiens; conditions: Homo sapiens, NOS-1;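 also: growth inhibition of the human NOS-1 cell line, read out with a cell viability assay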
Description: SANGER: Inhibition of human NOS-1 cell growth in a cell viability assay.

DOHH-2 = type: functional, cell-based, Homo sapiens; conditions: Homo sapiens, DOHH-2;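 also: growth inhibition of human DOHH-2 cells, read out with a cell viability assay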
Description: SANGER: Inhibition of human DOHH-2 cell growth in a cell viability assay.

K5 = type: functional, cell-based, Homo sapiens; conditions: Homo sapiens, K5
Description: SANGER: Inhibition of human K5 cell growth in a cell viability assay.

TE-10 = type: functional, cell-based, Homo sapiens; conditions: Homo sapiens, TE-10;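 also: growth inhibition of TE-10 cells, measured by a cell viability assay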
Description: SANGER: Inhibition of human TE-10 cell growth in a cell viability assay.

ML-2 = type: functional, cell-based, Homo sapiens; conditions: Homo sapiens, ML-2;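 also: growth inhibition of ML-2 cells, measured with a cell viability readout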
Description: SANGER: Inhibition of human ML-2 cell growth in a cell viability assay.

EM-2 = type: functional, cell-based, Homo sapiens; conditions: Homo sapiens, EM-2;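 also: growth inhibition of EM-2 cells, read out with a cell viability assay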
Description: SANGER: Inhibition of human EM-2 cell growth in a cell viability assay.

HT = type: functional, cell-based, Homo sapiens; conditions: Homo sapiens, HT
TE-9 = type: functional, cell-based, Homo sapiens; conditions: Homo sapiens, TE-9;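 also: cell growth inhibition, measured with a cell viability readout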
Description: SANGER: Inhibition of human TE-9 cell growth in a cell viability assay.

DB = type: functional, cell-based, Homo sapiens; conditions: Homo sapiens, DB
Description: SANGER: Inhibition of human DB cell growth in a cell viability assay.

CW-2 = type: functional, cell-based, Homo sapiens; conditions: Homo sapiens, CW-2;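 also: growth inhibition of CW-2 cells, read out by a cell viability assay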
Description: SANGER: Inhibition of human CW-2 cell growth in a cell viability assay.

RH-1 = type: functional, cell-based, Homo sapiens; conditions: Homo sapiens, RH-1;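 also: growth inhibition of human RH-1 cells, read out with a cell viability assay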

Measured: IC50

CC(C)C[C@H](NC(=O)[C@H](Cc1ccccc1)NC(=O)c1cnccn1)B(O)O [BORTEZOMIB]
3.41 nM: DB
17.6 nM: COLO-800
0.764 nM: GI-1
9.67 nM: CTB-1
> 0.02 µM: IST-MES1
8.48 nM: NB6
9.62 nM: DMS-114
3.21 nM: CW-2
0.766 nM: ES7
16.5 nM: TGW
0.407 nM: MZ2-MEL
3.54 nM: MZ1-PC
2.89 nM: MOLT-16
1.28 nM: K5
2.46 nM: NB69
1.16 nM: EM-2
0.693 nM: Ramos-2G6-4C10
3.55 nM: no-11
0.225 nM: A101D
5.31 nM: EW-1
0.425 nM: LB2518-MEL
2.11 nM: NOS-1
12.3 nM: NCI-H1581
2.48 nM: KNS-81-FD
0.923 nM: SF-268
5.01 nM: SBC-1
0.33 nM: ONS-76
0.821 nM: ML-2
0.722 nM: KINGS-1
0.243 nM: NTERA-2-cl-D1
9.01 nM: SK-NEP-1
3.68 nM: NMC-G1
17.1 nM: GOTO
1.03 nM: TE-10
3.02 nM: HT
0.182 nM: TE-9
0.71 nM: UACC-257
> 20 nM: all other assays above

C[C@@H](Oc1cc(-c2cnn(C3CCNCC3)c2)cnc1N)c1c(Cl)ccc(F)c1Cl [CRIZOTINIB]
1060 nM: BV-173
1960 nM: MOLT-16
750 nM: KINGS-1
> 2 µM: IST-MES1
601 nM: EM-2
> 2000 nM: all other assays above

Cc1ccc(-n2nc(C(C)(C)C)cc2NC(=O)Nc2ccc(OCCN3CCOCC3)c3ccccc23)cc1 [DORAMAPIMOD]
6390 nM: GOTO
7.96 µM: IST-MES1
> 10000 nM: all other assays above

Source: ChEMBL document CHEMBL1201861, “Genomics of Drug Sensitity in Cancer screening data, Wellcome Trust Sanger Institute”
